# Assay results reported in patent US6465457B1 (priority 1991, dated 2002).
# Read-outs that look alike come from different tables or passages of the source.
# Legend:
# Format in all cases: in vivo
# [1] = system: Erysiphe graminis tritici (Wheat); assay: Foliar fungal disease test on plants: Erysiphe graminis tritici (Wheat); settings: plants inoculated 24 hours before treatment
# [2] = system: Septoria nodorum (Wheat); assay: Foliar fungal disease test on plants: Septoria nodorum (Wheat); settings: one or two days before inoculation
# [3] = system: Puccinia recondita (Wheat); assay: Foliar fungal disease test on plants: Puccinia recondita (Wheat)
# [4] = system: Plasmopara viticola (Vines); assay: Foliar fungal disease test on plants: Plasmopara viticola (Vines); settings: one or two days before inoculation
# [5] = system: Phytophthora infestans (Tomatoes); settings: one or two days before inoculation
# [6] = system: Pyricularia oryzae (Rice); settings: one or two days before inoculation
# [7] = system: Venturia inaequalis (Apples); assay: Foliar fungal disease test on plants: Venturia inaequalis (Apples); settings: one or two days before inoculation
# [8] = system: Thanatephorus cucumeries (Rice); assay: Foliar fungal disease test on plants: Thanatephorus cucumeries (Rice); settings: one or two days before inoculation
# [9] = 100 ppm a.i. foliar spray or root drench (approx. 40 ppm in dry soil)
# [10] = 100 ppm a.i. foliar spray or root drench, plants inoculated with Puccinia recondita 48 hours before treatment
# [11] = 100 ppm a.i. foliar spray or root drench (approx. 40 ppm in dry soil), one or two days before inoculation
SMILES,"POCO (Percentage of Control) disease level, Erysiphe graminis tritici (Wheat) [1, 9]","POCO (Percentage of Control) disease level, Septoria nodorum (Wheat) [2, 9]","POCO (Percentage of Control) disease level, Puccinia recondita (Wheat) [3, 10]","POCO (Percentage of Control) disease level, Plasmopara viticola (Vines) [4, 9]","POCO (Percentage of Control) disease level, Phytophthora infestans (Tomatoes) [5, 9]","POCO (Percentage of Control) disease level, Pyricularia oryzae (Rice) [6, 9]","POCO (Percentage of Control) disease level, Venturia inaequalis (Apples) [7, 9]","POCO (Percentage of Control) disease level, Thanatephorus cucumeries (Rice) [8, 9]","POCO (Percentage of Control) disease level, Puccinia recondita (Wheat) [3, 11]","POCO (Percentage of Control) disease level, Erysiphe graminis tritici (Wheat) ([1]; 10 ppm foliar spray only)","POCO (Percentage of Control) disease level, Septoria nodorum (Wheat) ([2]; 10 ppm foliar spray only)","POCO (Percentage of Control) disease level, Puccinia recondita (Wheat) ([3]; 10 ppm foliar spray only, one or two days before inoculation)","POCO (Percentage of Control) disease level, Plasmopara viticola (Vines) ([4]; 10 ppm foliar spray only)","POCO (Percentage of Control) disease level, Phytophthora infestans (Tomatoes) ([5]; 10 ppm foliar spray only)","POCO (Percentage of Control) disease level, Pyricularia oryzae (Rice) ([6]; 10 ppm foliar spray only)","POCO (Percentage of Control) disease level, Venturia inaequalis (Apples) ([7]; 10 ppm foliar spray only)","POCO (Percentage of Control) disease level, Thanatephorus cucumeries (Rice) ([8]; 10 ppm foliar spray only)"
COC=C(C(=O)OC)c1ccccc1COC(=O)Nc1c(F)cccc1F [23 (1)],0 (0 = 0% disease present),30 (30 = 20.1-30% disease present),30+ (30 = 20.1-30% disease present),0 (0 = 0% disease present),90 (90 and 94 = 60.1-100% disease present),30 (30 = 20.1-30% disease present),0 (0 = 0% disease present),0 (0 = 0% disease present),,,,,,,,,
COC=C(C(=O)OC)c1ccccc1COC(=O)Nc1ccccc1F [3 (1)],0 (0 = 0% disease present),0 (0 = 0% disease present),,0 (0 = 0% disease present),30 (30 = 20.1-30% disease present),90 (90 and 94 = 60.1-100% disease present),1 (1 = 0.1-1% disease present),90 (90 and 94 = 60.1-100% disease present),0 (0 = 0% disease present),,,,,,,,
COC=C(C(=O)OC)c1ccccc1COC(=O)N(C)c1c(F)cccc1F [23 (2)],0 (0 = 0% disease present),0 (0 = 0% disease present),0+ (0 = 0% disease present),0 (0 = 0% disease present),0 (0 = 0% disease present),0 (0 = 0% disease present),0 (0 = 0% disease present),0 (0 = 0% disease present),,,,,,,,,
COC=C(C(=O)OC)c1ccccc1COC(=S)Nc1cccc(F)c1 [8 (6)],,,,,,,,,,90 (90 and 94 = 60.1-100% disease present),90 (90 and 94 = 60.1-100% disease present),90 (90 and 94 = 60.1-100% disease present),60 (60 = 30.1-60% disease present),90 (90 and 94 = 60.1-100% disease present),30 (30 = 20.1-30% disease present),60 (60 = 30.1-60% disease present),90 (90 and 94 = 60.1-100% disease present)
CCN(C(=O)OCc1ccccc1C(=COC)C(=O)OC)c1ccc(F)cc1 [13 (3)],0 (0 = 0% disease present),0 (0 = 0% disease present),0+ (0 = 0% disease present),0 (0 = 0% disease present),0 (0 = 0% disease present),0 (0 = 0% disease present),0 (0 = 0% disease present),0 (0 = 0% disease present),,,,,,,,,
COC=C(C(=O)OC)c1ccccc1COC(=O)N(C)c1ccccc1C(F)(F)F [18 (2)],60 (60 = 30.1-60% disease present),90 (90 and 94 = 60.1-100% disease present),90+ (90 and 94 = 60.1-100% disease present),3 (3 = 1.1-3% disease present),90 (90 and 94 = 60.1-100% disease present),60 (60 = 30.1-60% disease present),3 (3 = 1.1-3% disease present),60 (60 = 30.1-60% disease present),,,,,,,,,
C=CCN(C(=O)OCc1ccccc1C(=COC)C(=O)OC)c1c(F)cccc1F [23 (101)],0 (0 = 0% disease present),10 (10 = 5.1-10% disease present),0+ (0 = 0% disease present),0 (0 = 0% disease present),90 (90 and 94 = 60.1-100% disease present),0 (0 = 0% disease present),0 (0 = 0% disease present),0 (0 = 0% disease present),,,,,,,,,
COC=C(C(=O)OC)c1ccccc1COC(=O)N(C)c1cccc(C(F)(F)F)c1 [2 (2)],0 (0 = 0% disease present),0 (0 = 0% disease present),,0 (0 = 0% disease present),90 (90 and 94 = 60.1-100% disease present),5 (5 = 3.1-5% disease present),0 (0 = 0% disease present),30 (30 = 20.1-30% disease present),0 (0 = 0% disease present),,,,,,,,
COC=C(C(=O)OC)c1ccccc1COC(=S)Nc1cccc(C(F)(F)F)c1 [2 (6)],60 (60 = 30.1-60% disease present),60 (60 = 30.1-60% disease present),,30 (30 = 20.1-30% disease present),60 (60 = 30.1-60% disease present),5 (5 = 3.1-5% disease present),3 (3 = 1.1-3% disease present),90 (90 and 94 = 60.1-100% disease present),30 (30 = 20.1-30% disease present),,,,,,,,
CCN(C(=O)OCc1ccccc1C(=COC)C(=O)OC)c1cc(F)ccc1F [27 (3)],0 (0 = 0% disease present),30 (30 = 20.1-30% disease present),0+ (0 = 0% disease present),0 (0 = 0% disease present),20 (20 and 24 = 10.1-20% disease present),0 (0 = 0% disease present),0 (0 = 0% disease present),0 (0 = 0% disease present),,,,,,,,,
